# Data published in patent US10781224B2, “Bis(oxymethyl)phosphinic acid and biogenic metal salts thereof as regulators of plant growth and development” (priority 2016, dated 2020).
# Tests used:
# Format in all cases: in vivo
# [1] = test system: corn (Krasnodar 385 MV variety); assay: Corn seed treatment with BHMPA salts: germination energy and germination rate
# Outline: (§1)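 Corn, winter wheat and rice seeds (50 per dish, on filter paper) were soaked for 1 h in BHMPA or its metal salts at 1·10^−6-1·10^−12%, with water as control. Germination energy was read on day 4 and germination rate on day 8 for wheat and day 7 for rice and corn, following GOST 12038-84, as the mean of four replicates.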
# [2] = test system: rice (Diamant variety); assay: Rice seed treatment with BHMPA salts: germination energy and germination rate; details: for Germination energy / Germination rate: rice
# Outline: as §1
# [3] = test system: rice (Diamant variety); assay: Rice seed treatment with BHMPA salts: germinating power; details: for Length, root / Length, root, + % to control / Length, sprout / Length, sprout, + % to control / Mass, dry, root / Mass, dry, root, + % to control / Mass, dry, sprout / Mass, dry, sprout, + % to control / Mass, wet, root / Mass, wet, root, + % to control / Mass, wet, sprout / Mass, wet, sprout, + % to control: rice seed treatment
# Outline: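 Seeds (50 per Petri dish on two layers of filter paper) soaked 1 h in BHMPA or its Ca, Mg, Na, Co, Mn, Cu or Zn salts at 1·10^−6-1·10^−12%, with water controls. Germination energy read on day 4, germination on day 8 (wheat) or day 7 (rice, corn), as % means of four replicates. Germinating power taken as root and sprout length plus wet and dry mass per 100 seedlings.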
# [4] = comparative study vs Melaphen, 1·10^−8% solution
# [5] = rice seed treatment, solution 1 · 10^−10%
# [6] = comparison with Melaphen (Table XXXIII), solution 1 · 10^−10%
# [7] = experimental solution 1 · 10^−6%
# [8] = experimental solution 1 · 10^−7%
# [9] = experimental solution 1 · 10^−8%
# [10] = experimental solution 1 · 10^−9%
# [11] = experimental solution 1 · 10^−10%
# [12] = experimental solution 1 · 10^−11%
# [13] = experimental solution 1 · 10^−12%
# [14] = rice, vs control, 1·10^−10% solution
substance,measurement,setting,value
Copper BHMPA Salt [Cu-salt],Germination energy,[1]; 1·10^−6% solution,80.0%
same,Germination rate,[1]; 1·10^−6% solution,82.5%
same,Germination energy,[1]; 1·10^−7% solution,82.3%
same,Germination rate,[1]; 1·10^−7% solution,85.0%
same,Germination energy,[1]; 1·10^−8% solution,91.8%
same,Germination rate,[1]; 1·10^−8% solution,94.2%
same,Germination energy,[1]; 1·10^−9% solution,90.0%
same,Germination rate,[1]; 1·10^−9% solution,92.3%
same,Germination energy,[1]; 1·10^−10% solution,85.8%
same,Germination rate,[1]; 1·10^−10% solution,88.3%
same,Germination energy,[1]; 1·10^−11% solution,82.3%
same,Germination rate,[1]; 1·10^−11% solution,85.0%
same,Germination energy,[1]; 1·10^−12% solution,78.8%
same,Germination rate,[1]; 1·10^−12% solution,81.7%
same,Germination energy,[1]; [4],87.7%
same,Germination rate,[1]; [4],97.0%
same,"Germination energy, %",[2]; [5],88.0%
same,"Germination rate, %",[2]; [5],96.0%
same,Germination energy,[2]; 1·10^−6% solution,81.7%
same,Germination rate,[2]; 1·10^−6% solution,88.3%
same,Germination energy,[2]; 1·10^−7% solution,84.3%
same,Germination rate,[2]; 1·10^−7% solution,90.0%
same,Germination energy,[2]; 1·10^−8% solution,85.7%
same,Germination rate,[2]; 1·10^−8% solution,92.0%
same,Germination energy,[2]; 1·10^−9% solution,87.7%
same,Germination rate,[2]; 1·10^−9% solution,94.0%
same,Germination energy,[2]; 1·10^−10% solution,84.7%
same,Germination rate,[2]; 1·10^−10% solution,96.7%
same,Germination energy,"[2]; 1·10^−10% solution, listed as Cu",88.7%
same,Germination energy,[2]; 1·10^−11% solution,85.7%
same,Germination rate,[2]; 1·10^−11% solution,94.3%
same,Germination energy,[2]; 1·10^−12% solution,82.0%
same,Germination rate,[2]; 1·10^−12% solution,87.7%
same,Germination energy,[2]; [4],88.0%
same,Germination rate,[2]; [4],96.0%
same,optimum concentration for treating rice seeds before sowing,[3]; rice,1·10^−10%
same,"Length, root",[3]; [6],6.3 cm
same,"Length, root, + % to control",[3]; [6],31%
same,"Length, sprout",[3]; [6],3.3 cm
same,"Length, sprout, + % to control",[3]; [6],27%
same,"Mass, dry, root",[3]; [6],0.26 g/100 plantlings
same,"Mass, dry, root, + % to control",[3]; [6],24%
same,"Mass, dry, sprout",[3]; [6],0.27 g/100 plantlings
same,"Mass, dry, sprout, + % to control",[3]; [6],8%
same,"Mass, wet, root",[3]; [6],1.35 g/100 plantlings
same,"Mass, wet, root, + % to control",[3]; [6],38%
same,"Mass, wet, sprout",[3]; [6],2.25 g/100 plantlings
same,"Mass, wet, sprout, + % to control",[3]; [6],49%
same,"Length, root",[3]; [7],5.4 cm
same,"Length, root, + % to control",[3]; [7],6%
same,"Length, sprout",[3]; [7],2.6 cm
same,"Length, sprout, + % to control",[3]; [7],8%
same,"Mass, dry, root",[3]; [7],0.19 g/100 plantlings
same,"Mass, dry, root, + % to control",[3]; [7],12%
same,"Mass, dry, sprout",[3]; [7],0.26 g/100 plantlings
same,"Mass, dry, sprout, + % to control",[3]; [7],13%
same,"Mass, wet, root",[3]; [7],0.93 g/100 plantlings
same,"Mass, wet, root, + % to control",[3]; [7],13%
same,"Mass, wet, sprout",[3]; [7],1.47 g/100 plantlings
same,"Mass, wet, sprout, + % to control",[3]; [7],6.5%
same,"Length, root",[3]; [8],5.5 cm
same,"Length, root, + % to control",[3]; [8],8%
same,"Length, sprout",[3]; [8],2.7 cm
same,"Length, sprout, + % to control",[3]; [8],12.5%
same,"Mass, dry, root",[3]; [8],0.21 g/100 plantlings
same,"Mass, dry, root, + % to control",[3]; [8],23.5%
same,"Mass, dry, sprout",[3]; [8],0.29 g/100 plantlings
same,"Mass, dry, sprout, + % to control",[3]; [8],26%
same,"Mass, wet, root",[3]; [8],1.03 g/100 plantlings
same,"Mass, wet, root, + % to control",[3]; [8],26%
same,"Mass, wet, sprout",[3]; [8],1.61 g/100 plantlings
same,"Mass, wet, sprout, + % to control",[3]; [8],17%
same,"Length, root",[3]; [9],5.7 cm
same,"Length, root, + % to control",[3]; [9],12%
same,"Length, sprout",[3]; [9],2.8 cm
same,"Length, sprout, + % to control",[3]; [9],17%
same,"Mass, dry, root",[3]; [9],0.23 g/100 plantlings
same,"Mass, dry, root, + % to control",[3]; [9],35%
same,"Mass, dry, sprout",[3]; [9],0.31 g/100 plantlings
same,"Mass, dry, sprout, + % to control",[3]; [9],35%
same,"Mass, wet, root",[3]; [9],1.09 g/100 plantlings
same,"Mass, wet, root, + % to control",[3]; [9],33%
same,"Mass, wet, sprout",[3]; [9],1.74 g/100 plantlings
same,"Mass, wet, sprout, + % to control",[3]; [9],26%
same,"Length, root",[3]; [10],5.9 cm
same,"Length, root, + % to control",[3]; [10],16%
same,"Length, sprout",[3]; [10],2.8 cm
same,"Length, sprout, + % to control",[3]; [10],17%
same,"Mass, dry, root",[3]; [10],0.25 g/100 plantlings
same,"Mass, dry, root, + % to control",[3]; [10],47%
same,"Mass, dry, sprout",[3]; [10],0.33 g/100 plantlings
same,"Mass, dry, sprout, + % to control",[3]; [10],43%
same,"Mass, wet, root",[3]; [10],1.16 g/100 plantlings
same,"Mass, wet, root, + % to control",[3]; [10],41%
same,"Mass, wet, sprout",[3]; [10],1.92 g/100 plantlings
same,"Mass, wet, sprout, + % to control",[3]; [10],39%
same,"Length, root",[3]; [11],6.0 cm
same,"Length, root, + % to control",[3]; [11],18%
same,"Length, sprout",[3]; [11],2.9 cm
same,"Length, sprout, + % to control",[3]; [11],21%
same,"Mass, dry, root",[3]; [11],0.27 g/100 plantlings
same,"Mass, dry, root, + % to control",[3]; [11],59%
same,"Mass, dry, sprout",[3]; [11],0.36 g/100 plantlings
same,"Mass, dry, sprout, + % to control",[3]; [11],56.5%
same,"Mass, wet, root",[3]; [11],1.22 g/100 plantlings
same,"Mass, wet, root, + % to control",[3]; [11],49%
same,"Mass, wet, sprout",[3]; [11],2.11 g/100 plantlings
same,"Mass, wet, sprout, + % to control",[3]; [11],53%
same,"Length, root",[3]; [12],5.9 cm
same,"Length, root, + % to control",[3]; [12],16%
same,"Length, sprout",[3]; [12],2.7 cm
same,"Length, sprout, + % to control",[3]; [12],12.5%
same,"Mass, dry, root",[3]; [12],0.24 g/100 plantlings
same,"Mass, dry, root, + % to control",[3]; [12],41%
same,"Mass, dry, sprout",[3]; [12],0.32 g/100 plantlings
same,"Mass, dry, sprout, + % to control",[3]; [12],39%
same,"Mass, wet, root",[3]; [12],1.12 g/100 plantlings
same,"Mass, wet, root, + % to control",[3]; [12],36.5%
same,"Mass, wet, sprout",[3]; [12],1.87 g/100 plantlings
same,"Mass, wet, sprout, + % to control",[3]; [12],35.5%
same,"Length, root",[3]; [13],5.6 cm
same,"Length, root, + % to control",[3]; [13],10%
same,"Length, sprout",[3]; [13],2.6 cm
same,"Length, sprout, + % to control",[3]; [13],8%
same,"Mass, dry, root",[3]; [13],0.20 g/100 plantlings
same,"Mass, dry, root, + % to control",[3]; [13],18%
same,"Mass, dry, sprout",[3]; [13],0.27 g/100 plantlings
same,"Mass, dry, sprout, + % to control",[3]; [13],17%
same,"Mass, wet, root",[3]; [13],1.01 g/100 plantlings
same,"Mass, wet, root, + % to control",[3]; [13],23%
same,"Mass, wet, sprout",[3]; [13],1.75 g/100 plantlings
same,"Mass, wet, sprout, + % to control",[3]; [13],27%
same,dry mass of the roots increased by,[3]; [14],59%
same,dry mass of the sprouts increased by,[3]; [14],56.5%
same,length of the root increased by,[3]; [14],18%
same,length of the sprout increased by,[3]; [14],21%
same,wet mass of the roots increased by,[3]; [14],49%
same,wet mass of the sprouts increased by,[3]; [14],53%
